# Laboratory results: patent publication US11725010B2, “Polyheterocyclic compounds as METTL3 inhibitors” (Storm Therapeutics Limited, priority 2019, dated 2023)
# Where two headings read alike, the source gives them in different places.
# What was measured:
# METTL3/14 [1] = target: T1, METTL3/14 (Homo sapiens (Human), UniProt Q86U44)
# KASUMI-1 cells = test: Kasumi cell assay (CellTiter-Glo cell growth); format: cell-based; conditions: Homo sapiens, Kasumi 1; treated for 120 hours, CellTiter-Glo luminescence; read-out: KASUMI1 cells IC50
# Description: Upon treatment, Kasumil cells were incubated for 10 min at RT with the CellTiter-Glo reagent (G7571, Promega). Measurement of the luminescence signal was performed on a microplate reader (Ensight, PerkinElmer).
# Caov-3 cells = test: Caov3 CTG proliferation assay; format: cell-based; conditions: Homo sapiens, Caov-3; treated for 120 hours, CellTiter-Glo luminescence; read-out: Caov3 cells IC50
# Description: CTG Assay (Caov3 Cell Line)
# Upon treatment, Coav-3 cells were incubated for 10 min at RT with the CellTiter-Glo reagent (G7571, Promega). Measurement of the luminescence signal was performed on a microplate reader (Ensight, PerkinElmer).
# Caov3 CTG Assay—Proliferation Assay
# METTL3/14 [2] = target: T1, METTL3/14; test: biochemical
# T1 sequence (Q86U44 whole entry): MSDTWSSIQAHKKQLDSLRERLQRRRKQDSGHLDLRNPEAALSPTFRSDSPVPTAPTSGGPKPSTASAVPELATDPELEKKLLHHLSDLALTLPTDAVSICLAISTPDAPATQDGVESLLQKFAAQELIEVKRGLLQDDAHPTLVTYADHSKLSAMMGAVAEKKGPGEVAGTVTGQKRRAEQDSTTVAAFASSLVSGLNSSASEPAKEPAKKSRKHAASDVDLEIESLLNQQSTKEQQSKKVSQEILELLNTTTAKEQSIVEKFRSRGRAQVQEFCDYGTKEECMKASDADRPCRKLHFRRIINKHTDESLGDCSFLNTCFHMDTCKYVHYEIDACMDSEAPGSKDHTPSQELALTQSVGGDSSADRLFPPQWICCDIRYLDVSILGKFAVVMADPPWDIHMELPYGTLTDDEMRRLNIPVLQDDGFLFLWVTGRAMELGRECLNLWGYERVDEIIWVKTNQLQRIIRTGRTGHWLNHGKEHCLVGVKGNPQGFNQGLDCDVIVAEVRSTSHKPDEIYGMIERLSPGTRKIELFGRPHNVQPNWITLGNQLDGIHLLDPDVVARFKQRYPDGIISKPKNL
# T1 sequence (Q9HCE5 whole entry partner): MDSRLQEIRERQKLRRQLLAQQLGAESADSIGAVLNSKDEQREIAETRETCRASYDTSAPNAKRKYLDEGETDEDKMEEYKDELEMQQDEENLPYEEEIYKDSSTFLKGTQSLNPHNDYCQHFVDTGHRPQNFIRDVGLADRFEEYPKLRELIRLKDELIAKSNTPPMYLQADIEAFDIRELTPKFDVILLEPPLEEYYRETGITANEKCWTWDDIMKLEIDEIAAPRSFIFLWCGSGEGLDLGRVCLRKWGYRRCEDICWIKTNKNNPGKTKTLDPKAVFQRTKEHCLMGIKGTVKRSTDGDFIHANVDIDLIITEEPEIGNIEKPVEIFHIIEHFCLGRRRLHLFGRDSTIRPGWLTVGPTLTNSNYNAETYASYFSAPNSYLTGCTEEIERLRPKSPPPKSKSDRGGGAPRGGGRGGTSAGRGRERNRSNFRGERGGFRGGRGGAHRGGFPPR
SMILES,IC50 (METTL3/14 [1]),IC50 (KASUMI-1 cells),IC50 (Caov-3 cells),IC50 (METTL3/14 [2])
"[2H]C([2H])(NCC1CCC1)c1cc2ccc(CNC(=O)c3cc(=O)n4ccccc4n3)cc2[nH]1 [Example 47, N-[[2-[(Cyclobutylmethylamino)-dideuterio-methyl]-1H-indol-6-yl]methyl]-4-oxo-pyrido[1,2-a]pyrimidine-2-carboxamide]",0.0061 µM,0.344 µM,0.185 µM,–
"c1cc(-c2cn(Cc3cc4[nH]c(CNCC5CCC5)cc4cn3)nn2)c2cn[nH]c2c1 [Example 60, N-(cyclobutylmethyl)-1-[6-[[4-(1H-indazol-4-yl)triazol-1-yl]methyl]-1H-pyrrolo[3,2-c]pyridin-2-yl]methanamine]",0.0061 µM,2.18 µM,0.423 µM,–
"CC1(NCc2cc3ccc(CNC(=O)c4cc(=O)n5ccccc5n4)cc3[nH]2)CCCC1 [Example 114, N-[(2-{[(1-methylcyclopentyl)amino]methyl}-1H-indol-6-yl)methyl]-4-oxo-4H-pyrido[1,2-a]pyrimidine-2-carboxamide]",0.0061 µM,1.46 µM,0.679 µM,–
"FC12CC(CNCc3cc4ccc(Cn5cc(-c6cccn7cncc67)nn5)cc4[nH]3)(C1)C2 [Example 124, ({3-fluorobicyclo[1.1.1]pentan-1-yl}methyl)({6-[(4-{imidazo[1,5-a]pyridin-8-yl}-1H-1,2,3-triazol-1-yl)methyl]-1H-indol-2-yl}methyl)amine]",0.0061 µM,0.662 µM,0.266 µM,–
"O=C(NCc1ccc2cc(CNCC34CC(F)(C3)C4)[nH]c2c1)c1cc(=O)n2ccsc2n1 [Example 125, N-[(2-{[({3-fluorobicyclo[1.1.1]pentan-1-yl}methyl)amino]methyl}-1H-indol-6-yl)methyl]-5-oxo-5H-[1,3]thiazolo[3,2-a]pyrimidine-7-carboxamide]",0.0061 µM,0.504 µM,0.212 µM,–
"O=C(NCc1cnc2cc(CNCC34CC(C3)C4)[nH]c2c1)c1cc(=O)n2ccccc2n1 [Example 126, N-[(2-{[({bicyclo[1.1.1]pentan-1-yl}methyl)amino]methyl}-1H-pyrrolo[3,2-b]pyridin-6-yl)methyl]-4-oxo-4H-pyrido[1,2-a]pyrimidine-2-carboxamide]",0.0061 µM,3.07 µM,0.523 µM,–
"c1cc(-n2cc(Cc3ccc4cc(CNCC5CCC5)[nH]c4c3)nn2)c2cncn2c1 [Example 144, (cyclobutyl-methyl)({6-[(1-{imidazo[1,5-a]pyridin-8-yl}-1H-1,2,3-triazol-4-yl)methyl]-1H-indol-2-yl}methyl) amine]",–,–,–,0.0193 µM
"c1cc(-c2cn(Cc3cc4[nH]c(CN5CCC6(CCC6)C5)cc4cn3)nn2)c2cncn2c1 [Example 155, 2-((6-azaspiro[3.4]octan-6-yl)methyl)-6-((4-(imidazo[1,5-a]pyridin-8-yl)-1H-1,2,3-triazol-1-yl)methyl)-1H-pyrrolo[3,2-c]pyridine]",< 0.0061 µM,0.547 µM,0.473 µM,–
